Calls of active or inactive are those of the source. The rule behind the calls is not given here.
Experiments:
[1] = test system: T47D; test: Cytotoxicity against human T47D cells assessed as reduction in cell viability at 10 to 100 uM after 48 hrs by sulforhodamine B assay; format: cell-based
[2] = test system: Candida albicans; test: Growth inhibition of Candida albicans ATCC 90028 at 50 ug/ml relative to control; format: organism-based; conditions: in vivo
[3] = test system: Mycobacterium intracellulare; test: Growth inhibition of Mycobacterium intracellulare ATCC 23068 at 50 ug/ml relative to control; format: organism-based; conditions: in vivo
[4] = test system: Staphylococcus aureus; test: Growth inhibition of Staphylococcus aureus ATCC 29213 at 50 ug/ml relative to control; format: organism-based; conditions: in vivo
[5] = test system: Aspergillus fumigatus; test: Growth inhibition of Aspergillus fumigatus ATCC 204305 at 50 ug/ml relative to control; format: organism-based; conditions: in vivo
[6] = test system: Nakaseomyces glabratus; test: Growth inhibition of Candida glabrata ATCC 90030 at 50 ug/ml relative to control; format: organism-based; conditions: in vivo
[7] = test system: Escherichia coli; test: Growth inhibition of Escherichia coli ATCC 35218 at 50 ug/ml relative to control; format: organism-based; conditions: in vivo
[8] = test system: Pseudomonas aeruginosa; test: Growth inhibition of Pseudomonas aeruginosa ATCC 27853 at 50 ug/ml relative to control; format: organism-based; conditions: in vivo
[9] = test system: MDA-MB-231; test: Cytotoxicity against human MDA-MB-231 cells assessed as reduction in cell viability at 10 to 100 uM after 48 hrs by sulforhodamine B assay; format: cell-based; conditions: mda-mb-231, 48 h
[10] = test system: Escherichia coli; test: Antiadhesive activity against P-fimbriated Escherichia coli ATCC 700928 assessed as inhibition of bacterial adhesion to human HTB4 cells incubated for 30 mins in presence of [3H]uridine prior to infection measured after 1 hr by scintillation counting method; format: functional, organism-based
[11] = test system: Plasmodium falciparum; test: Growth inhibition of Plasmodium falciparum D6 at 15.9 ug/ml relative to control; format: organism-based; conditions: in vivo
[12] = test system: Leishmania donovani; test: Growth inhibition of Leishmania donovani at 80 ug/ml relative to control; format: organism-based; conditions: in vivo
[13] = test system: Pichia kudriavzevii; test: Growth inhibition of Candida krusei ATCC 6258 at 50 ug/ml relative to control; format: organism-based; conditions: in vivo
[14] = test system: Staphylococcus aureus; test: Growth inhibition of methicillin-[…] Staphylococcus aureus ATCC 33591 at 50 ug/ml relative to control; format: organism-based; conditions: in vivo
[15] = test system: Cryptococcus neoformans; test: Growth inhibition of Cryptococcus neoformans ATCC 90113 at 50 ug/ml relative to control; format: organism-based; conditions: in vivo

Structure (SMILES)	Activity [1]	growth inhibition (GI) [2] [%]	growth inhibition (GI) [3] [%]	growth inhibition (GI) [4] [%]	growth inhibition (GI) [5] [%]	growth inhibition (GI) [6] [%]	growth inhibition (GI) [7] [%]	growth inhibition (GI) [8] [%]	Activity [9]	inhibition [10]	growth inhibition (GI) [11] [%]	growth inhibition (GI) [12] [%]	growth inhibition (GI) [13] [%]	growth inhibition (GI) [14] [%]	growth inhibition (GI) [15] [%]
OC[C@@H]1O[C@@H](O[C@H]2[C@@H](OC[C@H]3O[C@@H](O)[C@H](O)[C@@H](O)[C@@H]3O[C@@H]3O[C@H](CO)[C@@H](O[C@@H]4O[C@H](COC5OC[C@@H](O)[C@H](O)[C@H]5O[C@@H]5O[C@@H](CO)[C@H](O)[C@H]5O)[C@@H](O[C@@H]5O[C@H](CO)[C@@H](O)[C@H](O)[C@H]5O)[C@H](O)[C@H]4O)[C@H](O)[C@H]3O)OC[C@@H](O)[C@@H]2O)[C@H](O)[C@H]1O (single isomer, unassigned)	Non-Toxic	< 50	< 50	< 50	< 50	< 50	< 50	< 50	Non-Toxic	inactive	< 50	< 50	< 50	< 50	< 50
OC[C@@H]1O[C@@H](O[C@H]2[C@@H](OC[C@H]3O[C@@H](O)[C@H](O)[C@@H](O)[C@@H]3O[C@@H]3O[C@H](CO)[C@@H](O[C@@H]4O[C@H](COC5OC[C@@H](O)[C@H](O)[C@H]5O)[C@@H](O[C@@H]5O[C@H](CO)[C@@H](O)[C@H](O)[C@H]5O)[C@H](O)[C@H]4O)[C@H](O)[C@H]3O)OC[C@@H](O)[C@@H]2O)[C@H](O)[C@H]1O (single isomer, unassigned)	Non-Toxic	< 50	< 50	< 50	< 50	< 50	< 50	< 50	Non-Toxic	inactive	< 50	< 50	< 50	< 50	< 50

From ChEMBL document CHEMBL4422697, “Structural Characterization of Cranberry Arabinoxyloglucan Oligosaccharides” (J Nat Prod, 2019)
